Assay results as given in patent publication US20110223157A1, “METHODS FOR THE TREATMENT OF NON-HODGKIN'S LYMPHOMAS USING LENALIDOMIDE, AND GENE AND PROTEIN BIOMARKERS AS A PREDICTOR” (priority 2010, published 2011).
Like-named read-outs stand apart in the source and are kept apart here.

Legend:
Format in all cases: cell-based
NFκB p65 = NFκB p65 activity, Active Motif transcription factor assay on nuclear extracts of treated DLBCL cells; settings: 2 days; for inhibition at 1 µM / inhibition at 10 µM: read-out: P65 Inhibition (%) mean ± SD
Method: (§1) DLBCL cells were treated with lenalidomide or an IKK1/2 dual inhibitor (used as a positive inhibitor control) for 2 days. NFκB activity was examined with Active Motif transcription factor assay using nuclear extracts from cells following treatment.

DLBCL cell lines = assay: Proliferation of DLBCL cells in vitro, 3H-thymidine incorporation
Method: A panel of DLBCL cell lines of various cytogenetic features was tested for their sensitivity to the antiproliferative activity of lenalidomide. Cells were treated with lenalidomide for 5 days at 37° C.; proliferation of cells was determined using ^3H-thymidine incorporation method. Results of 3 independent experiments are shown (mean±SD). […] ABC-subtype cells appear more sensitive to the antiproliferative effect than other subtype cells including GCB-DLBCL and PMBL cells.

NFκB p50 = NFκB p50 activity, Active Motif transcription factor assay on nuclear extracts of treated DLBCL cells; settings: 2 days; for inhibition at 1 µM / inhibition at 10 µM: read-out: P50 Inhibition (%) mean ± SD
Method: as §1

[1] = 48 h, KARPS-1160p cells (PBML), 1 μM
[2] = Homo sapiens, OCI-Ly3, 48 h, OCI-Ly3 cells, 1 μM
[3] = Homo sapiens, OCI-Ly3, 48 h, OCI-Ly3 cells
[4] = Homo sapiens, OCI-Ly10, 48 h, OCI-Ly10 cells, 1 μM
[5] = Homo sapiens, OCI-Ly10, 48 h, OCI-Ly10 cells
[6] = Homo sapiens, TMD8, 48 h, TMD8 cells, 1 μM
[7] = Homo sapiens, TMD8, 48 h, TMD8 cells

SMILES: Nc1cccc2c1CN(C1CCC(=O)NC1=O)C2=O (stereo not drawn) [lenalidomide, 3-(4-amino-1-oxo-1,3-dihydro-isoindol-2-yl)-piperidine-2,6-dione]
- Effect on NFκB p65 activity (NFκB p65; 1 μM, U2932 cells, p<0.001): significantly inhibits
- inhibition at 1 µM (NFκB p65; [1]): 5.9 ± 0.49%
- inhibition at 10 µM (NFκB p65; 48 h, KARPS-1160p cells (PBML)): 5.4 ± 0.35%
- inhibition at 1 µM (NFκB p65; 48 h, RIVA cells, 1 μM): 19.3 ± 15.6%
- inhibition at 10 µM (NFκB p65; 48 h, RIVA cells): 41.7 ± 26.8%
- inhibition at 1 µM (NFκB p65; 48 h, U2392 cells, 1 μM): 40 ± 3.7%
- inhibition at 10 µM (NFκB p65; 48 h, U2392 cells): 47.9 ± 6.2%
- inhibition at 1 µM (NFκB p65; [2]): -17.4 ± 13.4%
- inhibition at 10 µM (NFκB p65; [3]): -15.8 ± 15%
- inhibition at 1 µM (NFκB p65; [4]): 27.6 ± 20.7%
- inhibition at 10 µM (NFκB p65; [5]): 22 ± 12.2%
- inhibition at 1 µM (NFκB p65; [6]): 14.1 ± 9%
- inhibition at 10 µM (NFκB p65; [7]): 49.7 ± 32.8%
- Effect on proliferation (DLBCL cell lines; ABC cell lines U2392, RIVA, TMD8 and OCI-Ly10): significantly inhibits
- Starting concentration of significant (p<0.05) inhibition of proliferation (DLBCL cell lines; several DLBCL lines, particularly ABC-subtype Riva, U2932, TMD8, OCI-Ly10, 5 days at 37° C.): 0.1 to 1 µM
- Effect on NFκB p50 activity (NFκB p50; 1 μM, U2932 cells, p<0.05): significantly inhibits
- inhibition at 1 µM (NFκB p50; [1]): 14.5 ± 0.95%
- inhibition at 10 µM (NFκB p50; 48 h, KARPS-1160p cells (PBML)): 16.4 ± 0.28%
- inhibition at 1 µM (NFκB p50; 48 h, RIVA cells, 1 μM): 11.1 ± 11.7%
- inhibition at 10 µM (NFκB p50; 48 h, RIVA cells): 28.6 ± 21%
- inhibition at 1 µM (NFκB p50; 48 h, U2392 cells, 1 μM): 32.5 ± 14.3%
- inhibition at 1 µM (NFκB p50; [2]): -10.3 ± 19.7%
- inhibition at 10 µM (NFκB p50; [3]): -9.5 ± 19.1%
- inhibition at 1 µM (NFκB p50; [4]): 22.7 ± 18.8%
- inhibition at 10 µM (NFκB p50; [5]): 22.6 ± 14.1%
- inhibition at 1 µM (NFκB p50; [6]): 14.4 ± 16.4%
- inhibition at 10 µM (NFκB p50; [7]): 48.5 ± 40.2%
